Patent US8586369B2, “Ion channel-forming peptides” (The Regents of the University of California, priority 2007, dated 2013)
Values joined by “and” are separate entries in the source; they are usually repeats but may differ in a detail not shown here. Equal values may be shown once. “Also recorded” adds a separate entry of the source.

What was measured:
Alkaline Phosphatase = test system: Alkaline Phosphatase
Protocol: Monitoring the enzymatic hydrolysis of glycolic acid-O-phosphate with Alkaline Phosphatase by NMR: Glycolic acid-O-phosphate (1.1 mg, 7.1 μmol) was added to a buffer containing 0.5 mL of 100 mM KCl, 140 mM Na2CO3 buffer in 0.5 mL of D2O at pD 9.4. […] (0.5 mg, 1 nmol) was added to the solution and ^31P-NMR spectra were taken at various time points to monitor the enzymatic hydrolysis of glycolic acid-O-phosphate to glycolic acid. ^31P-NMR (300 MHz, D2O): glycolic acid-O-phosphate: δ 3.33 ppm, free inorganic phosphate: 2.54 ppm using an internal 85% phosphoric acid standard (set to 0 ppm).

[1] = Single-channel conductance of homodimeric gA pores in planar lipid bilayers made from DiPhyPC (Example 1); type: biochemical; settings: for Single-channel conductance γ: HEPES pH 7.4, DiPhyPC bilayers, slope of I-V curves; for Single-channel conductance γ / γ at pH 7.4: homodimers; for γ at pH 7.4: DiPhyPC bilayers; for γ-ratio to gA-gA: pH 7.4, DiPhyPC
Protocol: Formation of planar lipid bilayers: We formed most planar lipid bilayers with the “folding technique.” We used a Teflon film (Eastern Scientific Inc, pore diameter 0.18-0.25 mm) was pretreated on each side with 2.5 μL of 5% hexadecane in pentane and air dried. This film was mounted using vacuum grease (Dow Corning, High vacuum grease) to a custom made Teflon chamber separating two buffer compartments each with a volume capacity of 4 mL. After adding 1 mL of electrolyte (0.01 M to 1.00 M KCl buffered with HEPES pH 7.4) to each compartment, lipids were spread from a solution in pentane onto the surface of the electrolyte solutions (specifically, 4-6 μL from 25 mg mL-l solution DiPhyPC or from 6.25 mg mL-l each of 50% DOPS and 50% POPE or from 25 mg mL-l DODAP mixed with 25 mg mL-l DiPhyPC in a 1:9 ratio. Three additional milliliters of electrolyte solution were added to each side of the chamber to raise the liquid levels above the aperture. We formed the bilayers from apposition of two monolayers of lipids using the method described by Montal et al. (Proc. Natl. Acad. Sci. U.S.A. 1972, 69, 3561-3566). Briefly, bilayers were obtained by consecutively raising the liquid level in each compartment until the pore was completely covered by electrolyte. If at this point the pore was not closed by a lipid bilayer, then the liquid level in one or both compartments was lowered below the pore level by aspirating electrolyte into a 3 mL syringe, followed by raising the electrolyte solution again.
Planar lipid bilayers were also made with the “painting technique”. We pretreated each side of a pore in a bilayer cup (Warner Instruments, Delrin perfusion cup, volume 1 mL, pore diameter 250 μm) with ˜2 μL of a 25 mg mL-l solution of DiPhyPC in hexane. After adding recording buffer (0.01 M KCl to 1.00 M KCl buffered with HEPES, pH=7.4) to both compartments of the bilayer setup, we “painted” a solution of 20 mg mL-l DiPhyPC in n-decane over the pore by using a paint brush with a fine tip. We followed the thinning of the decane droplet to form a planar bilayer by monitoring the capacitance of the bilayer. After verifying that bilayers were stable for several minutes (in the range of ±200 mV applied voltage) and that the capacitances were above 80-90 pF, gA was added (4-8 μL from 1 ng mL-l in ethanol), derivatives 1 or 2 (2-10 μL from 100 ng mL-l in ethanol), or derivative 3 (4-10 μL from 100 ng mL-l in ethanol) directly to the bilayer chambers.
Ion channel measurements: We performed single channel recordings in “voltage clamp mode” using Ag/AgCl electrodes (Warner Instruments) in each compartment of the bilayer chambers. Data acquisition and storage was carried out using custom software in combination with either an EPC-7 patch clamp amplifier from List Medical Electronic (set at a gain of 100 mV pA-1 and a filter cutoff frequency of 3 kHz) or a Geneclamp 500 amplifier from Axon Instruments (with a CV-5B 100GU headstage, set at a gain of 100 mV pA-1 and filter cutoff frequency of 1 kHz). We used the EPC-7 amplifier for most folded bilayers and the Geneclamp 500 amplifier for most painted bilayers. The data acquisition boards for both amplifiers were set to a sampling frequency of 15 kHz. All current traces shown in the figures were further filtered using a digital Gaussian low-pass filter with a cutoff frequency of 30 Hz. The current traces we used to generate all data that was recorded at applied potentials s 50 mV were filtered at 10 Hz.
We performed the analysis of the single channel current traces by computing histograms of the currents from the original current-time traces with ClampFit 9.2 software from Axon Instruments. From these histograms we extracted the main current values by fitting a Gaussian function to the peaks in the histograms. […] Single channel conductances reported in this paper always refer to the main conductance state (i.e. to the dominant peaks in the current histograms).

[2] = Single-channel conductance in negatively charged planar bilayers (50% POPE, 50% DOPS); type: biochemical; settings: 0.01 M KCl
Text: The data acquisition boards for both amplifiers were set to a sampling frequency of 15 kHz.

[3] = Single-channel conductance of homodimeric gA pores in planar lipid bilayers made from DiPhyPC (Example 1); type: biochemical; settings: 20 mM KCl plus 10 mM KOH; for γ at pH 12: DiPhyPC bilayers, homodimers
[4] = target: bovine carbonic anhydrase II (CA, EC 4.2.1.1) (Bos taurus, UniProt P00921); assay: Detection of protein-ligand binding interactions using ion channel measurements; settings: 12 pM structure 11, 50 μM CA, 140 mM KCl, 10 mM phosphate pH 8.0, 100 mV
bovine carbonic anhydrase II (CA, EC 4.2.1.1), sequence (P00921 whole entry): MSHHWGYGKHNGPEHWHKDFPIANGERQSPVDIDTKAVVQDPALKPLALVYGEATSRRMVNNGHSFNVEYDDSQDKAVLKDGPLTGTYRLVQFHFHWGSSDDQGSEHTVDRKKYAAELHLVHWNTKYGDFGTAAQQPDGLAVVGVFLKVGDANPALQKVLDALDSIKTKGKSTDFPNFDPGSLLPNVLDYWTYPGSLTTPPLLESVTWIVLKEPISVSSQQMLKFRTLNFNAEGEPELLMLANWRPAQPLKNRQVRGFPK
Protocol: Benzenesulfonamides are well-known ligands for carbonic anhydrase II (CA, EC 4.2.1.1), a Zn^2+-containing protein.
Detection of protein-ligand binding interactions using ion channel measurements: About 1 μL (from a 100 ng mL^−1 solution in ethanol) of structure 11 (to afford a final concentration of 12 pM of structure 11) was added to each compartment of a bilayer setup containing as electrolyte 140 mM KCl and 10 mM phosphate buffer (pH 8.0). The conductance was recorded at 100 mV.

[5] = Single channel recordings of gA derivatives in planar lipid bilayers (Example 2); type: biochemical; settings: applied potential 100 mV, 20 mM KCl, 0.2 mM HEPES pH 7.4
Protocol: Formation of Planar Lipid Bilayers: Planar lipid bilayers were formed by the “folding technique.” Briefly, a film (e.g., Teflon®, Eastern Scientific Inc, pore diameter 0.1-0.2 mm) that was pretreated on both sides of the pore with 2 μL of 5% (v/v) hexadecane in pentane. This film was mounted using vacuum grease (Dow Corning, High vacuum grease) to a custom-made Teflon chamber separating two buffer compartments each with a volume capacity of 4 mL. After addition of 1 mL of electrolyte (20 mM KCl buffered with 0.2 mM HEPES pH 7.4 or 140 mM KCl buffered with 10 mM phosphate pH 8.0) to each compartment, lipids were spread at the air-water interface of the electrolyte solution in both compartments. Three additional milliliters of the same electrolyte solution were added to each compartment to raise the liquid level above the aperture in the Teflon film. The bilayers were formed on the pore of the Teflon film by aspirating the electrolyte solution into a 3 mL syringe, followed by dispensing the electrolyte solution back into each compartment.
Ion Channel Measurements: Single channel recordings in “voltage clamp mode” were performed using Ag/AgCl pellet electrodes (Warner Instruments) in each compartment of the bilayer setup. Data acquisition and storage was carried out using custom software in combination with an EPC-7 patch clamp amplifier from Heka (set at a gain of 10 mV pA^−1 and a filter cutoff frequency of 3 kHz). The data acquisition board for the amplifier was set to a sampling frequency of 15 kHz. All current traces shown in the figures were further filtered using a digital Gaussian low-pass filter with a cutoff frequency of 4 Hz.
The analysis of single channel current traces was performed by computing histograms of the currents from the original current versus time traces with ClampFit 9.2 software from Axon Instruments. From these histograms, main current values were extracted by fitting a Gaussian function to the peaks in the histograms. […]

O=C(O)COP(=O)(O)O [glycolic acid-O-phosphate]
time after which the enzymatic hydrolysis was completed (Alkaline Phosphatase; 7.1 μmol substrate, 1 nmol enzyme, 100 mM KCl, 140 mM Na2CO3, pD 9.4): 50 min
hydrolysis by AP (Alkaline Phosphatase; 31P-NMR spectroscopy): hydrolyzed by AP

Gramicidin A [gA, reference compound]
Single-channel conductance γ ([1]; 0.01 M KCl): 2.7 ± 0.5 pS
γ at pH 7.4 ([1]; 20 mM KCl): 4.5 ± 0.1 pS
Single-channel conductance γ ([1]; 0.10 M KCl): 10.3 ± 0.1 pS
Single-channel conductance γ ([1]; 1.00 M KCl, listed as gA-gA): 20 pS and 20.0 ± 0.2 pS
Single-channel conductance γ in negatively charged bilayers ([2]; 0.1 mM HEPES pH 7.4, listed as gA-gA): 26.9±0.2 pS and 27 pS
γ at pH 12 [3]: 7.8 ± 0.2 pS

gA-triazole-benzenesulfonamide [structure 11]
effect of CA on ion channel activity [4]: suppression of ion channel activity; also recorded: reduction of ion channel activity
effect of CA on ion channel activity ([4]; listed as gA-sulfonamide 11): reduces the observed transmembrane ion flux

gramicidamine
conductance compared with gA-gA at pH 7.4 ([1]; 20 mM KCl, DiPhyPC): significantly less
γ at pH 7.4 ([1]; 20 mM KCl): 3.8 ± 0.2 pS
ion channel activity in planar lipid bilayers [5]: retained well-defined ion channel activity
conductance compared with gA-gA at pH 12 ([3]; DiPhyPC): indistinguishable
γ at pH 12 [3]: 7.7 ± 0.9 pS

gramicidyl taurinyl succinate [compound 1]
Single-channel conductance γ ([1]; 0.01 M KCl): 3.5 ± 0.3 pS
γ-ratio to gA-gA ([1]; 0.01 M KCl): about 1.3
γ-ratio to gA-gA ([1]; 0.01 M KCl, listed as 1-1): 1.3
Single-channel conductance γ ([1]; 0.10 M KCl): 11.0 ± 0.4 pS
γ-ratio to gA-gA ([1]; 0.10 M KCl): 1.1
Single-channel conductance γ ([1]; 1.00 M KCl): 19.5 ± 0.4 pS
γ-ratio to gA-gA ([1]; 1.00 M KCl): 1.0
difference in single channel conductance compared to gA ([1]; approximately 0.10 M KCl): 7%
difference in single channel conductance compared to gA ([1]; approximately 1.00 M KCl): 3%
Single-channel conductance γ in negatively charged bilayers ([2]; 0.1 mM HEPES pH 7.4): 26.8±0.9 pS
